Laboratory results published in patent US20260297070A1, “CYCLIC [COMPOUND LEFT OUT] WRN INHIBITORS” (Nimbus Wadjet, Inc., priority 2023, published 2026).

Target: T1, human Werner helicase (WRN-BV08, Uniprot Q14191, amino acids 517-1235 with L1074F point mutation) (Homo sapiens, UniProt Q14191, L1074F)
T1 construct: Uniprot Q14191, amino acids 517-1235 with L1074F point mutation; TEV-cleavable 8×His (C, cleaved yes); made in house; host or cells: Sf9 insect cells (baculovirus)
Assay: WRN (BV08) ADP-Glo Assay
Assay type: biochemical
Conditions: 0.15 nM WRN, 5 μM ATP, 0.1 nM DNA duplex, 15 min preincubation, 60 min at 25° C., pH 7.5, 1% DMSO; read-out: ADP-Glo_hWRN_IC50
Text: Example 2: WRN (BV08) ADP-Glo Assay Protocol
Bovine skin gelatin (BSG), dimethyl sulfoxide (DMSO), Pluronic F-127 and Tris(2-carboxyethyl)phosphine hydrochloride solution (TCEP) were purchased from Sigma-Aldrich at the highest level of purity possible. Bicine buffer solution was purchased from Alfa Aesar and compound NSC-617145 was purchased from Tocris. DNA duplex was synthesized at BGI (Shenzhen, China) and was composed of strand 1 with the sequence 5′-[…]-3′ (SEQ ID NO.: 1) and strand 2 with the sequence 5′-[…]-3′ (SEQ ID NO.: 2). DNA strands were annealed by heating to 95° C. for 5 minutes followed by slow cooling to room temperature. Compounds in 100% DMSO (0.1 μl) were spotted into a 384-well white polystyrene Optiplate-384 (Perkin Elmer) assay plate using a LabCyte Echo 550 (Agilent). DMSO (0.1 μl) was added to columns 12, rows A-H and column 24, rows I-P for the maximum signal control. Compound NSC-617145 (0.1 μl) was added to columns 12, rows I-P and 24, rows A-H for the minimum signal control (100% inhibition). Compounds/DMSO were preincubated for 15 minutes at 25° C. with 5 uL 2×WRN (BV08), prepared as described below, in assay buffer containing 20 mM Bicine (pH=7.5), 1 mM MgCl2, 10 mM KCl, 0.1% Pluronic F-127, 0.005% BSG, 1 mM TCEP. The reaction was initiated by the addition of 5 μl 2× substrate mixture in assay buffer and incubated for 60 minutes at 25° C. The final concentrations of the assay components were 0.15 nM WRN, 5 μM ATP, and 0.1 nM DNA duplex. The final DMSO concentration was 1% and the reference compound concentration (NSC-617145) used for the minimal signal control was 20 μM. The reaction was stopped by the addition of the ADP-Glo Kit components (Promega) as directed and the relative luminescence units (RLU) were read on an Envision 2104 (Perkin Elmer).
% Inhibition Calculation:
Where RLU=relative luminescence units, sample=signal in sample well, and MIN and MAX are the respective minimum and maximum signal controls.
Four-Parameter IC50 Fit Equation:
Where top and bottom are normally allowed to float but may be fixed at 100 or 0 respectively in a 3-parameter fit. Y is the % inhibition and X is the compound concentration.
Molecular Biology and virus production. The DNA encoding human Werner helicase (Uniprot Q14191, amino acids 517-1235 with L1074F point mutation) was generated with codon-optimization for E. coli expression and subcloned into the pFastBac vector with a TEV cleavable 8×His tag (WRN-BV08). The baculovirus from the expression plasmid WRN-BV08 was generated from transfection and amplification following the manufacturer's instructions.
Sf9 cells grown in SF900II media were infected with 1:200 WRN-BV08 P2 virus and incubated for protein expression for 72 h at 27° C. The WRN protein was purified using the following protocol. The cell pellets were thawed and resuspended in buffer A (50 mM Tris, pH 7.5, 500 mM NaCl, 1 mM TCEP, 10% Glycerol) supplemented with 0.5% CHAPS, 1 mM [COMPOUND LEFT OUT], 1 μg/mL Leupeptin, 1 μg/mL Pepstatin, and the Pierce Universal Nuclease and cocktail tablet. Cleared lysates were loaded onto a Ni Sepharose™ excel column and washed with buffer A and bound protein was eluted with buffer A supplemented with 300 mM imidazole. The eluted protein was dialyzed against buffer A and digested by His-tagged TEV (1:5 ratio) overnight at 4° C. ZnCl2 was added into the sample at final 15 μM before loading onto a second Ni Sepharose™ excel column. Untagged WRN protein was eluted from the column with buffer A supplemented with 20 mM imidazole, dialyzed overnight into buffer B (50 mM Tris, pH 7.5, 1 mM TCEP, 10% Glycerol) supplemented with 150 mM NaCl and loaded onto a Heparin column. Proteins were eluted with a step gradient of buffer B supplemented with 150 mM, 200 mM, 300 mM and 500 mM NaCl. […]

T1 sequence (Q14191 with tags, fused parts or gaps L1074F limits assumed): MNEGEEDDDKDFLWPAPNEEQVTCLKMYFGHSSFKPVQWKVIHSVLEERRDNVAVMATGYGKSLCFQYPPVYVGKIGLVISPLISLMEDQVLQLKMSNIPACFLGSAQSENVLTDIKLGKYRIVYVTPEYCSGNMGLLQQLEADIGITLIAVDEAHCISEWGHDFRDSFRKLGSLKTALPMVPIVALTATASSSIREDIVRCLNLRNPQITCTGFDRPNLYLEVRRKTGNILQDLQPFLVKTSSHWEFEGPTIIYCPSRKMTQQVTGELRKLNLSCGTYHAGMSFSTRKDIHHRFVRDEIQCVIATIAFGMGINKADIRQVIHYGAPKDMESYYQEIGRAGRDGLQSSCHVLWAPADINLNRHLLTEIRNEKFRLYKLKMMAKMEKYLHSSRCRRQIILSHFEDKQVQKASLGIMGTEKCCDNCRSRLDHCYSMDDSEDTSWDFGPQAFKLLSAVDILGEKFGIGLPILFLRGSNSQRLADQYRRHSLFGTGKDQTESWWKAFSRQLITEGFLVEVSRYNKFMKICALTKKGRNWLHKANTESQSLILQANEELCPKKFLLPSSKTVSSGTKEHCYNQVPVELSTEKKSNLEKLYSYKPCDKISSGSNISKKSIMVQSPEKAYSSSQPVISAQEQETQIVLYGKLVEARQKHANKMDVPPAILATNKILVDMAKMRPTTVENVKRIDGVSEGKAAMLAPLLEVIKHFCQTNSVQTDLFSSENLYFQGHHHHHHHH

Structure (SMILES) | IC50 [µM]
N#Cc1csc(CN(C(=O)Cc2ccc(-n3cccc3)cc2)C2C=CS(=O)(=O)C2)n1 (stereo not drawn) [I-190, N-[(4-cyano-1,3-thiazol-2-yl)methyl]-N-(1,1-dioxo-2,3-dihydro-1lambda6-thiophen-3-yl)-2-[4-(1H-pyrrol-1-yl)phenyl]acetamide] | 0.5 to 5
O=C(Cc1ccc(-n2cccc2)cc1)N(Cc1nc2c(s1)CCCC2)C1C=CS(=O)(=O)C1 (stereo not drawn) [I-154, N-(1,1-dioxo-2,3-dihydro-1lambda6-thiophen-3-yl)-2-[4-(1H-pyrrol-1-yl)phenyl]-N-[(4,5,6,7-tetrahydro-1,3-benzothiazol-2-yl)methyl]acetamide] | 0.5 to 5
CC(C)(C)c1ccc(CC(=O)N(Cc2ccncc2)C2C=CS(=O)(=O)C2)cc1 (stereo not drawn) [I-310, 2-(4-tert-butylphenyl)-N-(1,1-dioxo-2,3-dihydro-1lambda6-thiophen-3-yl)-N-[(pyridin-4-yl)methyl]acetamide] | 10 to 50
CSc1ccc(CC(=O)N(Cc2ccncc2)C2C=CS(=O)(=O)C2)cc1 (stereo not drawn) [I-339, N-(1,1-dioxo-2,3-dihydro-1lambda6-thiophen-3-yl)-2-[4-(methylsulfanyl)phenyl]-N-[(pyridin-4-yl)methyl]acetamide] | 10 to 50
CN(C)C(=O)C(C(=O)N(Cc1ccnc(C(C)(C)O)c1)C1C=CS(=O)(=O)C1)c1ccc(-c2ccc(F)c(F)c2)cc1F (stereo not drawn) [I-24, N′-(1,1-dioxo-2,3-dihydro-1lambda6-thiophen-3-yl)-N′-{[2-(2-hydroxypropan-2-yl)pyridin-4-yl]methyl}-N,N-dimethyl-2-{3,3′,4′-trifluoro-[1,1′-biphenyl]-4-yl}propanediamide] | < 0.5
COc1cc(CN(C(=O)C2CN(C)c3cc(-c4ccc(F)cc4)ccc32)C2C=CS(=O)(=O)C2)ccn1 (stereo not drawn) [I-385, N-(1,1-dioxo-2,3-dihydro-1lambda6-thiophen-3-yl)-6-(4-fluorophenyl)-N-[(2-methoxypyridin-4-yl)methyl]-1-methyl-2,3-dihydro-1H-indole-3-carboxamide] | > 50
COC(C(=O)N(Cc1ccnc(C(C)(C)O)c1)C1C=CS(=O)(=O)C1)c1ccc(-c2ccc(F)cc2)cc1F (stereo not drawn) [I-28, 2-{3,4′-difluoro-[1,1′-biphenyl]-4-yl}-N-(1,1-dioxo-2,3-dihydro-1lambda6-thiophen-3-yl)-N-{[2-(2-hydroxypropan-2-yl)pyridin-4-yl]methyl}-2-methoxyacetamide] | < 0.5
O=C(Cn1cc(-c2ccc(F)cc2)cn1)N(Cc1nc(C2CC2)cs1)C1C=CS(=O)(=O)C1 (stereo not drawn) [I-49, N-[(4-cyclopropyl-1,3-thiazol-2-yl)methyl]-N-(1,1-dioxo-2,3-dihydro-1lambda6-thiophen-3-yl)-2-[4-(4-fluorophenyl)-1H-pyrazol-1-yl]acetamide] | < 0.5
COc1cc(CN(C(=O)C(C(=O)N(C)C)c2ccc(-c3ccc(F)c(F)c3)cc2F)C2C=CS(=O)(=O)C2)ccn1 (stereo not drawn) [I-37, N′-(1,1-dioxo-2,3-dihydro-1lambda6-thiophen-3-yl)-N′-[(2-methoxypyridin-4-yl)methyl]-N,N-dimethyl-2-{3,3′,4′-trifluoro-[1,1′-biphenyl]-4-yl}propanediamide] | < 0.5
CN(C)c1cc(CN(C(=O)Cc2ccc(S(F)(F)(F)(F)F)cc2)C2C=CS(=O)(=O)C2)ccn1 (stereo not drawn) [I-89, N-{[2-(dimethylamino)pyridin-4-yl]methyl}-N-(1,1-dioxo-2,3-dihydro-1lambda6-thiophen-3-yl)-2-[4-(pentafluoro-lambda6-sulfanyl)phenyl]acetamide] | 0.5 to 5
Cc1cccn1-c1ccc(CC(=O)N(Cc2ccncn2)C2C=CS(=O)(=O)C2)c(F)c1 (stereo not drawn) [I-181, N-(1,1-dioxo-2,3-dihydro-1lambda6-thiophen-3-yl)-2-[2-fluoro-4-(2-methyl-1H-pyrrol-1-yl)phenyl]-N-[(pyrimidin-4-yl)methyl]acetamide] | 0.5 to 5
COc1cc(CN(C(=O)Cn2cc(-c3cccc(F)c3)cn2)C2C=CS(=O)(=O)C2)ccn1 (stereo not drawn) [I-54, N-(1,1-dioxo-2,3-dihydro-1lambda6-thiophen-3-yl)-2-[4-(3-fluorophenyl)-1H-pyrazol-1-yl]-N-[(2-methoxypyridin-4-yl)methyl]acetamide] | < 0.5
CC(C)(O)c1cc(CN(C(=O)Cn2cc(-c3ccccc3)cn2)C2C=CS(=O)(=O)C2)ccn1 (stereo not drawn) [I-76, N-(1,1-dioxo-2,3-dihydro-1lambda6-thiophen-3-yl)-N-{[2-(2-hydroxypropan-2-yl)pyridin-4-yl]methyl}-2-(4-phenyl-1H-pyrazol-1-yl)acetamide] | < 0.5
O=C(Cc1ncc(-n2cccc2)s1)N(Cc1ccncc1)C1C=CS(=O)(=O)C1 (stereo not drawn) [I-279, N-(1,1-dioxo-2,3-dihydro-1lambda6-thiophen-3-yl)-N-[(pyridin-4-yl)methyl]-2-[5-(1H-pyrrol-1-yl)-1,3-thiazol-2-yl]acetamide] | 5 to 10

Results, then the molecule that gave them:

IC50 [µM] | Structure (SMILES)
5 to 10 | COC(C(=O)N(Cc1nc(C(C)(C)O)cs1)C1C=CS(=O)(=O)C1)c1ccc(-c2ccc(F)c(F)c2)cc1F (single isomer, unassigned) [I-747, (2R*)-N-[(3R**)-1,1-dioxo-2,3-dihydro-1lambda6-thiophen-3-yl]-N-{[4-(2-hydroxypropan-2-yl)-1,3-thiazol-2-yl]methyl}-2-methoxy-2-{3,3′,4′-trifluoro-[1,1′-biphenyl]-4-yl}acetamide]
< 0.5 | O=C(Cn1cc(-c2ccc(F)c(F)c2)cn1)N(Cc1nc([C@H]2C[C@H]2F)cs1)C1C=CS(=O)(=O)C1 (stereo partly drawn) [I-724, 2-[4-(3,4-difluorophenyl)-1H-pyrazol-1-yl]-N-(1,1-dioxo-2,3-dihydro-1lambda6-thiophen-3-yl)-N-({4-[(1R,2R)-2-fluorocyclopropyl]-1,3-thiazol-2-yl}methyl)acetamide]
> 50 | O=C(Cc1ccc(N2CCOCC2)cc1)N(Cc1ccncc1)C1C=CS(=O)(=O)C1 (stereo not drawn) [I-564, N-(1,1-dioxo-2,3-dihydro-1lambda6-thiophen-3-yl)-2-[4-(morpholin-4-yl)phenyl]-N-[(pyridin-4-yl)methyl]acetamide]
5 to 10 | COc1cc(CN(C(=O)C(OC2CCN(S(C)(=O)=O)CC2)c2ccc(-c3ccc(F)c(F)c3)cc2F)[C@@H]2C=CS(=O)(=O)C2)ccn1 (stereo partly drawn) [I-687, N-[(3R)-1,1-dioxo-2,3-dihydro-1lambda6-thiophen-3-yl]-2-[(1-methanesulfonylpiperidin-4-yl)oxy]-N-[(2-methoxypyridin-4-yl)methyl]-2-{3,3′,4′-trifluoro-[1,1′-biphenyl]-4-yl}acetamide]
> 50 | CN1CCc2c(ccn2-c2ccc(CC(=O)N(Cc3ccccc3)C3C=CS(=O)(=O)C3)cc2)C1 (stereo not drawn) [I-456, N-benzyl-N-(1,1-dioxo-2,3-dihydro-1lambda6-thiophen-3-yl)-2-(4-{5-methyl-1H,4H,5H,6H,7H-pyrrolo[3,2-c]pyridin-1-yl}phenyl)acetamide]
0.5 to 5 | CC(C)(O)c1cc(CN(C(=O)C2CCCc3c(-c4cc(F)c(F)c(F)c4)cnn32)[C@@H]2C=CS(=O)(=O)C2)ccn1 (single isomer, unassigned) [I-806]
> 50 | CC(C)(O)c1cc(CN(C(=O)c2c[nH]c3cc(-c4ccc(F)cc4)ccc23)C2C=CS(=O)(=O)C2)ccn1 (stereo not drawn) [I-424, N-(1,1-dioxo-2,3-dihydro-1lambda6-thiophen-3-yl)-6-(4-fluorophenyl)-N-{[2-(2-hydroxypropan-2-yl)pyridin-4-yl]methyl}-1H-indole-3-carboxamide]
